Laboratory results reported in the NIST ThermoML archive (doi:10.1016/j.fluid.2006.03.015).

Assay: molar heat capacity at constant pressure
Conditions: 101.33 kPa, Liquid

CCCCCCn1cc[n+](C)c1.O=S(=O)([O-])C(F)(F)F [1-hexyl-3-methylimidazolium trifluoromethanesulfonate]
Conditions | molar heat capacity at constant pressure [J/K/mol]
313.14 K, Large sample (1 g) DSC | 517
315.15 K, Small sample (50 mg) DSC | 526
318.15 K, Large sample (1 g) DSC | 522
320.15 K, Small sample (50 mg) DSC | 528
323.17 K, Large sample (1 g) DSC | 525
325.15 K, Small sample (50 mg) DSC | 530
328.13 K, Large sample (1 g) DSC | 527
328.15 K, modulated-temperature differential scanning calorimetry MDSC | 519
330.15 K, Small sample (50 mg) DSC | 532
333.15 K, Large sample (1 g) DSC | 528
333.15 K, modulated-temperature differential scanning calorimetry MDSC | 522
335.15 K, Small sample (50 mg) DSC | 536
338.15 K, modulated-temperature differential scanning calorimetry MDSC | 524
338.16 K, Large sample (1 g) DSC | 531
340.15 K, Small sample (50 mg) DSC | 539
343.15 K, modulated-temperature differential scanning calorimetry MDSC | 528
343.16 K, Large sample (1 g) DSC | 534
345.15 K, Small sample (50 mg) DSC | 541
348.15 K, modulated-temperature differential scanning calorimetry MDSC | 530
348.16 K, Large sample (1 g) DSC | 535
350.15 K, Small sample (50 mg) DSC | 545
353.15 K, modulated-temperature differential scanning calorimetry MDSC | 532
353.18 K, Large sample (1 g) DSC | 539
355.15 K, Small sample (50 mg) DSC | 548
358.12 K, Large sample (1 g) DSC | 542
358.15 K, modulated-temperature differential scanning calorimetry MDSC | 535
360.15 K, Small sample (50 mg) DSC | 551
363.15 K, modulated-temperature differential scanning calorimetry MDSC | 538
363.17 K, Large sample (1 g) DSC | 545
365.15 K, Small sample (50 mg) DSC | 554
368.15 K, Large sample (1 g) DSC | 548
368.15 K, modulated-temperature differential scanning calorimetry MDSC | 540
370.15 K, Small sample (50 mg) DSC | 556
373.15 K, modulated-temperature differential scanning calorimetry MDSC | 543
373.17 K, Large sample (1 g) DSC | 550
375.15 K, Small sample (50 mg) DSC | 559
378.15 K, modulated-temperature differential scanning calorimetry MDSC | 544
378.17 K, Large sample (1 g) DSC | 552
380.15 K, Small sample (50 mg) DSC | 562
383.15 K, modulated-temperature differential scanning calorimetry MDSC | 547
383.17 K, Large sample (1 g) DSC | 555
385.15 K, Small sample (50 mg) DSC | 565
388.15 K, modulated-temperature differential scanning calorimetry MDSC | 549
388.16 K, Large sample (1 g) DSC | 558
390.15 K, Small sample (50 mg) DSC | 568
393.15 K, Large sample (1 g) DSC | 560
393.15 K, modulated-temperature differential scanning calorimetry MDSC | 552
395.15 K, Small sample (50 mg) DSC | 571
398.15 K, modulated-temperature differential scanning calorimetry MDSC | 554
398.18 K, Large sample (1 g) DSC | 562
400.15 K, Small sample (50 mg) DSC | 574
403.15 K, modulated-temperature differential scanning calorimetry MDSC | 556
403.16 K, Large sample (1 g) DSC | 564
405.15 K, Small sample (50 mg) DSC | 577
408.13 K, Large sample (1 g) DSC | 566
408.15 K, modulated-temperature differential scanning calorimetry MDSC | 557
410.15 K, Small sample (50 mg) DSC | 580
413.15 K, modulated-temperature differential scanning calorimetry MDSC | 562
413.16 K, Large sample (1 g) DSC | 569
415.15 K, Small sample (50 mg) DSC | 583
418.15 K, Large sample (1 g) DSC | 573
420.15 K, Small sample (50 mg) DSC | 586
423.17 K, Large sample (1 g) DSC | 572
425.15 K, Small sample (50 mg) DSC | 589

CCCCCCCCn1cc[n+](C)c1.O=S(=O)([O-])C(F)(F)F [1-octyl-3-methylimidazolium trifluoromethanesulfonate]
Conditions | molar heat capacity at constant pressure [J/K/mol]
313.17 K, Large sample (1 g) DSC | 588
315.15 K, Small sample (50 mg) DSC | 604
318.14 K, Large sample (1 g) DSC | 592
320.15 K, Small sample (50 mg) DSC | 608
323.13 K, Large sample (1 g) DSC | 595
325.15 K, Small sample (50 mg) DSC | 612
328.13 K, Large sample (1 g) DSC | 595
328.15 K, modulated-temperature differential scanning calorimetry MDSC | 599
330.15 K, Small sample (50 mg) DSC | 612
333.14 K, Large sample (1 g) DSC | 595
333.15 K, modulated-temperature differential scanning calorimetry MDSC | 603
335.15 K, Small sample (50 mg) DSC | 616
338.14 K, Large sample (1 g) DSC | 598
338.15 K, modulated-temperature differential scanning calorimetry MDSC | 606
340.15 K, Small sample (50 mg) DSC | 620
343.14 K, Large sample (1 g) DSC | 599
343.15 K, modulated-temperature differential scanning calorimetry MDSC | 609
345.15 K, Small sample (50 mg) DSC | 623
348.15 K, modulated-temperature differential scanning calorimetry MDSC | 612
348.17 K, Large sample (1 g) DSC | 599
350.15 K, Small sample (50 mg) DSC | 627
353.13 K, Large sample (1 g) DSC | 601
353.15 K, modulated-temperature differential scanning calorimetry MDSC | 616
355.15 K, Small sample (50 mg) DSC | 631
358.15 K, Large sample (1 g) DSC | 605
358.15 K, modulated-temperature differential scanning calorimetry MDSC | 619
360.15 K, Small sample (50 mg) DSC | 634
363.15 K, Large sample (1 g) DSC | 610
363.15 K, modulated-temperature differential scanning calorimetry MDSC | 622
365.15 K, Small sample (50 mg) DSC | 637
368.15 K, Large sample (1 g) DSC | 616
368.15 K, modulated-temperature differential scanning calorimetry MDSC | 625
370.15 K, Small sample (50 mg) DSC | 641
373.14 K, Large sample (1 g) DSC | 617
373.15 K, modulated-temperature differential scanning calorimetry MDSC | 628
375.15 K, Small sample (50 mg) DSC | 644
378.12 K, Large sample (1 g) DSC | 621
378.15 K, modulated-temperature differential scanning calorimetry MDSC | 631
380.15 K, Small sample (50 mg) DSC | 648
383.15 K, modulated-temperature differential scanning calorimetry MDSC | 635
383.16 K, Large sample (1 g) DSC | 626
385.15 K, Small sample (50 mg) DSC | 652
388.15 K, Large sample (1 g) DSC | 631
388.15 K, modulated-temperature differential scanning calorimetry MDSC | 637
390.15 K, Small sample (50 mg) DSC | 655
393.13 K, Large sample (1 g) DSC | 636
393.15 K, modulated-temperature differential scanning calorimetry MDSC | 640
395.15 K, Small sample (50 mg) DSC | 658
398.15 K, modulated-temperature differential scanning calorimetry MDSC | 642
398.17 K, Large sample (1 g) DSC | 639
400.15 K, Small sample (50 mg) DSC | 663
403.14 K, Large sample (1 g) DSC | 642
403.15 K, modulated-temperature differential scanning calorimetry MDSC | 645
405.15 K, Small sample (50 mg) DSC | 666
408.15 K, modulated-temperature differential scanning calorimetry MDSC | 648
408.18 K, Large sample (1 g) DSC | 644
410.15 K, Small sample (50 mg) DSC | 670
413.15 K, Large sample (1 g) DSC | 647
413.15 K, modulated-temperature differential scanning calorimetry MDSC | 651
415.15 K, Small sample (50 mg) DSC | 673
418.18 K, Large sample (1 g) DSC | 649
420.15 K, Small sample (50 mg) DSC | 677
423.14 K, Large sample (1 g) DSC | 651
425.15 K, Small sample (50 mg) DSC | 680

c1ccccc1 [benzene]
Small sample (50 mg) DSC
Conditions | molar heat capacity at constant pressure [J/K/mol]
295.15 K | 134.8
300.15 K | 135.4
305.15 K | 136.5
310.15 K | 137.9
315.15 K | 139.2
320.15 K | 140.85
325.15 K | 142.5
330.15 K | 144.15
335.15 K | 145.8
340.15 K | 147.55
345.15 K | 149.3
350.15 K | 151.2
